Measured values published in article PMC12024264, “Frog Skin Peptides Hylin-a1, AR-23, and RV-23: Promising Tools Against Carbapenem-Resistant Escherichia coli and Klebsiella pneumoniae Infections” (Antibiotics, 2025).
Where no end group is shown, it is not given here.

Columns and labels:
K. pneumoniae ATCC 10031 [1] = test: Biofilm initial cell attachment assay; format: cell-based, Klebsiella pneumoniae; conditions: 2 h; for concentration of total reduction in biofilm attachment (antibiofilm MIC): initial cell attachment, 37 °C, peptides 50-1.56 μM, absorbance 570 nm
Experimental: (§1) We also investigated the ability of peptides to interfere with biofilm using three different assays (refer to the Section 4) against K. pneumonia and E. coli.
(§2) Figure 3 The effect of Hylin-a1, AR-23, and RV-23 on the initial cell attachment of biofilm formation. […] Statistical analysis was performed by One-way ANOVA followed by Dunnett’s multiple comparisons test.
(§3) The anti-biofilm activity of peptides was evaluated against E. coli and K. pneumoniae ATCC strains. Bacterial cultures were grown overnight, then diluted to an OD600 of 0.1 in MH broth supplemented with 1% (v/v) glucose. A 100 μL aliquot of the bacterial suspension was combined with an equal volume of peptides at non-cytotoxic concentrations in a 96-well plate and incubated at 37 °C for 2 h. Following incubation, non-adherent planktonic cells were removed by washing with phosphate-buffered saline (PBS, Microtech), and adherent cells were incubated with MTT solution for 3 h at 37 °C. Additionally, adherent cells were collected, resuspended in PBS, and plated on agar for viable cell counting. Serial dilutions were performed for each peptide, and CFU/mL were determined after 20 h of incubation at 37 °C (Figure S2). Absorbance was measured at 570 nm to evaluate adhesion percentage.

K. pneumoniae ATCC 10031 [2] = test: Time-kill assay; format: cell-based, Klebsiella pneumoniae
Experimental: This in vitro method allows for assessing the kinetics of bacterial killing by peptides over time. […] Specifically, at each time point, 50 μL aliquots of the bacterial–peptide mixtures were collected and plated on agar (see Materials and Methods for further details). Following incubation, colony-forming units (CFUs) were counted and the killing rate of each peptide concentration was calculated (Figure 2).
Figure 2 Evaluation of the kinetic-killing effect of Hylin-a1, AR-23, and RV-23 against K. pneumoniae and E. coli. […] Untreated bacteria was used as control negative (CTR- in black).
Using the same conditions as the MIC assay, a time–kill test was performed to monitor bacterial growth over time. […] Finally, bacterial colonies were counted, and the CFU/mL was calculated.

E. coli ATCC 25992 [3] = test: Biofilm initial cell attachment assay; format: cell-based, Escherichia coli; conditions: 2 h; for concentration of total reduction in biofilm attachment (antibiofilm MIC): initial cell attachment, 37 °C, peptides 50-1.56 μM, absorbance 570 nm
Experimental: as §1, §2, §3

K. pneumoniae ATCC 10031 [4] = conditions: for MBC: colonies' growth on agar plates after microdilution, N/D = not detected antibacterial activity; for MIC: microdilution (NCCLS), MH broth, 5 × 10^5 CFU/mL, 37 °C, 20 h, absorbance, 50 to 1.56 μM
Experimental: (§4) The three peptides were tested for their antibacterial activity. […] As described in the Materials and Methods section, the antibacterial effect of peptides was investigated using a microdilution assay. Each concentration of AMPs was inoculated with bacteria in 96-well plates and incubated at 37 °C for 20 h. After that, MIC values were determined by analyzing absorbance and expressed as a percentage of inhibition. MBC was assessed by observing the colonies’ growth on agar plates, as described elsewhere.
(§5) Each strain was grown in Mueller Hinton Broth (MH Broth), and 5 × 10^5 CFU/mL was used to evaluate antibacterial activity. Clinical carbapenem-resistant K. pneumoniae and E. coli isolates were collected at the AOU of Virology and Microbiology of the University of Campania “Luigi Vanvitelli”.
(§6) The antimicrobial activity of Hylin-a1, AR-23, and RV-23 was investigated using a microdilution assay as reported by the National Committee on Clinical Laboratory Standards (NCCLS) guidelines against a broad spectrum of Gram-negative bacteria. […] In 96-well, the standardized bacterial inoculum (5 × 10^5 colony forming units, CFU/mL) was inoculated together with AMPs and incubated at 37 °C for 20 h. After the time of incubation, optical density (OD) was measured at TECAN, and data were expressed as a percentage of inhibition. In addition to assessing the MIC values, the bactericidal effect was also studied as reported elsewhere.

E. coli ATCC 25992 [5] = conditions: for MBC: colonies' growth on agar plates after microdilution, N/D = not detected antibacterial activity; for MIC: microdilution (NCCLS), MH broth, 5 × 10^5 CFU/mL, 37 °C, 20 h, absorbance, 50 to 1.56 μM
Experimental: as §4, §5, §6

K. pneumoniae 311 = conditions: carbapenemase OXA-48 (class D), rectal swab, N/D = no antibacterial activity detected
Experimental: as §5, §6

K. pneumoniae = test: Checkerboard assay with meropenem; conditions: checkerboard, 20 h, OD600
E. coli = conditions: against E. coli; ref 63 (Zhang et al.); cited from earlier work
Source text: The activity of AR-23 and RV-23 against Gram-negative bacteria has been briefly described in previous studies. Zhang et al. evaluated the antibacterial effects of both peptides against E. coli. […] The authors attributed this enhanced activity to RV-23’s lower hydrophobicity and higher hydrophobic moment, factors strongly associated with reduced cytotoxicity and greater selectivity compared to AR-23. In contrast, the antibacteri ...

| Substance | reduction of biofilm (initial attachment) (K. pneumoniae ATCC 10031 [1]; at 50 μM) | concentration of total reduction in biofilm attachment (antibiofilm MIC) (K. pneumoniae ATCC 10031 [1]) [µM] | bacterial killing in time-kill assay (K. pneumoniae ATCC 10031 [2]) | reduction of biofilm (initial attachment) (E. coli ATCC 25992 [3]; at 50 μM) | concentration of total reduction in biofilm attachment (antibiofilm MIC) (E. coli ATCC 25992 [3]) [µM] | MBC (K. pneumoniae ATCC 10031 [4]) [µM] | MIC (K. pneumoniae ATCC 10031 [4]) [µM] | MBC (E. coli ATCC 25992 [5]) [µM] | MIC (E. coli ATCC 25992 [5]) [µM] | time to significant reduction in bacterial viability / bactericidal effect (K. pneumoniae ATCC 10031 [2]) [h] | MBC (K. pneumoniae 311) [µM] | MIC (K. pneumoniae 311; microdilution, 37 °C, 20 h) [µM] | MIC of peptide in combination with meropenem (K. pneumoniae) [µM] | MIC (E. coli) [µM] |
| --- | --- | --- | --- | --- | --- | --- | --- | --- | --- | --- | --- | --- | --- | --- |
| IFGAILPLALGALKNLIK-NH2 [Hylin-a1] | 80–100% | 50 | kills bacteria | 80–100% | 50 | 6.25 | 6.25 | 25 | 25 |  |  |  |  |  |
| RIGVLLARLPKLFSLFKLMGKKV-NH2 [RV-23] |  | 50 |  |  | 12.5 | 12.5 | 6.25 | 12.5 | 12.5 | ≤ 2 | 50 | 50 | 3.125 | 3.33 |
